Legend:
TR alpha LBD-GST = molecular target: T1, TR alpha LBD-GST (Homo sapiens, UniProt P10827); experiment: Thyroid Receptor Alpha Coactivator - Agonist (LanthaScreen TR-FRET coactivator recruitment assay); assay type: biochemical; conditions: 1% DMSO, relative to T3 response
T1 construct: incubated with the TR alpha LBD-GST or TR beta LBD-GST; purchased ThermoFIsher
Procedure: Thyroid receptor beta and thyroid receptor alpha coactivator recruitment assays were performed using LanthaScreen™ TR-FRET TR alpha or beta Coactivator Assay Kits (ThermoFIsher). The control agonist 3,3′,5-Triiodo-L-thyronine sodium salt, T3 (SIGMA) was used to validate the assay. Test compound and/or vehicle was incubated with the TR alpha LBD-GST or TR beta LBD-GST and coactivator peptide (Fluorescein-SRC2-2 (LKEKHKILHRLLQDSSSPV) (SEQ ID NO: 1)) for 30 minutes at RT. Determination of the amount of complex formed was read spectrofluorimetrically (excitation: 337 nm, emission: 520/490 nm) on a PHERAstar FS instrument (BMG). […]

TR beta LBD-GST = molecular target: T2, TR beta LBD-GST (Homo sapiens, UniProt P10828); experiment: Thyroid Receptor Beta Coactivator - Agonist (LanthaScreen TR-FRET coactivator recruitment assay); assay type: biochemical; conditions: 1% DMSO, relative to T3 response
T2 construct: incubated with the TR alpha LBD-GST or TR beta LBD-GST; purchased ThermoFIsher
T2 sequence (P10828 217-461 limits assumed): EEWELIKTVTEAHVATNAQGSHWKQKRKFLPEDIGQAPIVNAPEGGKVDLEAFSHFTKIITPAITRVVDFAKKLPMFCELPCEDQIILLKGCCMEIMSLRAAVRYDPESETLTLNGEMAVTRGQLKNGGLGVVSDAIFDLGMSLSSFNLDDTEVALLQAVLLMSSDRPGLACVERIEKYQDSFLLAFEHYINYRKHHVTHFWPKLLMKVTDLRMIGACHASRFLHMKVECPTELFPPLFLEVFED
Procedure: Thyroid receptor beta and thyroid receptor alpha coactivator recruitment assays were performed using LanthaScreen™ TR-FRET TR alpha or beta Coactivator Assay Kits (ThermoFIsher). The control agonist 3,3′,5-Triiodo-L-thyronine sodium salt, T3 (SIGMA) was used to validate the assay. Test compound and/or vehicle was incubated with the TR alpha LBD-GST or TR beta LBD-GST and coactivator peptide (Fluorescein-SRC2-2 (LKEKHKILHRLLQDSSSPV) (SEQ ID NO: 1)) for 30 minutes at RT. Determination of the amount of complex formed was read spectrofluorimetrically (excitation: 337 nm, emission: 520/490 nm) on a PHERAstar FS instrument (BMG). […] Compounds were screened at 30, 10, 3, 1, 0.3, 0.1, and 0.03 μM.

T1 sequence (P10827 163-410 isoform P10827-2 limits assumed, other chains not shown): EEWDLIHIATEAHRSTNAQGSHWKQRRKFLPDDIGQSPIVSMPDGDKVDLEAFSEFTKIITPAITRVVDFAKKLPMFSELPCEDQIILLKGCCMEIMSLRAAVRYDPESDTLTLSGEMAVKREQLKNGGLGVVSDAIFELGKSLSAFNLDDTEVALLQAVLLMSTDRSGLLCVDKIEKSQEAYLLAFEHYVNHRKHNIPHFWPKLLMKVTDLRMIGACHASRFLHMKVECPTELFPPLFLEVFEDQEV

Agonist Response (TR alpha LBD-GST; test compound 10 nM): 1.1
Agonist Response (TR alpha LBD-GST; test compound 0.03 mcM): 1.4
Agonist Response (TR alpha LBD-GST; test compound 0.1 mcM): 2.2
Agonist Response (TR alpha LBD-GST; test compound 0.3 mcM): 3.9
Agonist Response (TR alpha LBD-GST; test compound 1 mcM): 12.7
Agonist Response (TR alpha LBD-GST; test compound 3 mcM): 19.2
Agonist Response (TR alpha LBD-GST; test compound 10 mcM): 19.5
Agonist Response (TR alpha LBD-GST; test compound 30 mcM): 18.6
Agonist Response (TR beta LBD-GST; test compound 10 nM): −4.5
Agonist Response (TR beta LBD-GST; test compound 0.03 mcM): −1.2
Agonist Response (TR beta LBD-GST; test compound 0.1 mcM): 0.7
Agonist Response (TR beta LBD-GST; test compound 0.3 mcM): 10.5
Agonist Response (TR beta LBD-GST; test compound 1 mcM): 28.7
Agonist Response (TR beta LBD-GST; test compound 3 mcM): 31.1
Agonist Response (TR beta LBD-GST; test compound 10 mcM): 32.6
Agonist Response (TR beta LBD-GST; test compound 30 mcM): 31.8
SMILES: N#Cc1cn(-c2cc(Cl)c(Oc3n[nH]c(=O)c4ccccc34)c(Cl)c2)c(=O)[nH]c1=O [Compound g, 1-(3,5-dichloro-4-((4-oxo-3,4-dihydrophthalazin-1-yl)oxy)phenyl)-2,4-dioxo-1,2,3,4-tetrahydropyrimidine-5-carbonitrile]
